Data on 2 compounds can be found in patent US12215123B2, “Cordycepin-based derivatized compound with anti-tumor effect” (NANJING TECH UNIVERSITY, priority 2022, dated 2025).

Read-outs that look alike come from different tables or passages of the source.

Series [1] relates to wild-type AB-line zebrafish. The conditions noted are these: 3 dpf to 5 dpf, 35° C.; survival rate>90% and teratogenicity<20%. The protocol: The zebrafish model is a wild-type AB-line zebrafish from College of Biotechnology and Pharmaceutical Engineering, Nanjing Tech University, and is carried out by a natural mating reproduction method, with 30 zebrafish of 2 dpf in each experimental group. The zebrafish is fed in fish culture water at 28° C. (water quality:200 mg of instant sea salt and CaCO3 are added into 1 L of reverse osmosis water with a conductivity of 480 uS/cm to 510 uS/cm, a pH value of 6.9 to 7.2, and a hardness of 53.7 mg/L to 71.6 mg/L), and the feeding management meets the requirements of international AAALAC certification.
240 3 dpf wild-type AB-line zebrafish were randomly selected in an 8-well plate, with 30 zebrafish in each well, and 3 mL of fish culture water in each well, the cordycepin was diluted according to a maximum lethal dose, dissolved in DMSO, and added into each well according to a concentration gradient (the maximum lethal dose was diluted by 100 times, in which 8 concentration gradient values were taken for the experiment), and meanwhile, a normal control group, a solvent control group G (5% glucose) and a solvent control group D (DMSO) were set. During the experiment, the zebrafish in each group were cultured at 35° C., after the zebrafish were treated to be 5 dpf with a sample to be tested, lethal and developmental malformation conditions of the zebrafish in different doses were investigated respectively, and a maximum tolerance dose (MTD) of the sample to be tested to normal zebrafish was determined under a concentration when survival rate>90% and teratogenicity<20%.

Series [2] has as its system small cell lung cancer cell line H1048. As to the kind of experiment: MTT proliferation, small cell lung cancer cell line H1048. The conditions noted are these: read-out: IC50 (μM) of compounds in small cell lung cancer cells, H1048. The format is cell-based. An outline of the steps:
(§1)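 MTT assay: cells seeded at 2 to 4×10^4 cells/mL, grown 24 h, then exposed to compound for 72 h. MTT added for 4 h, formazan dissolved in DMSO and absorbance read at 570 nm; IC50 taken from the S-shaped concentration-inhibition curve.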

Series [3] has as its system pancreatic cancer Pan02-luc cells. Briefly: Mouse transplanted pancreatic cancer model, survival. The format is in vivo, C57BL/6j nude mice. The conditions noted are these: intragastric 500 ug/time/animal every day for 24 days, control 41 days. The protocol: The feeding of the mouse model in the drug evaluation follows that: mice are fed and treated in a laminar flow cabinet, with 5 nude mice in each cage, drinking water and feedstuffs are added once every 3 days, and paddings are replaced once a week; a number of mice kept in each cage is no more than 5, the mice in separate cages are kept in groups as far as possible, and the mice should not be kept in a single cage; the animal management must conform to the relevant national standards on animal feeding management, and the behavioral needs of animals should be concerned at the same time to avoid unnecessary stress; the normal physiological and behavioral needs of animals, such as defecation, urination, constant body temperature maintenance, normal activities, posture adjustment and reproduction are met; good ventilation and dry animals are kept; the animals can access to drinking water and food at will, and supplementation, replacement and cleaning operations are easily carried out; a solid and safe environment is provided to avoid accidents of animals, such as escaping or limb trapping in a gap; the animals are avoided from being damaged by sharp edges or protrusions; and the animals are not disturbed during observation. […]

For series [4], the system named is gastric cancer cell line AGS. Briefly: MTT proliferation, gastric cancer cell line AGS. The format is cell-based. The conditions noted are these: read-out: IC50 (μM) in gastric cancer cells, AGS. An outline of the steps: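 Tumour cells in exponential growth were trypsinised, seeded at 2 to 4×10^4 cells/mL, cultured 24 hours, then exposed to compounds for 72 hours. MTT was added for 4 hours, formazan dissolved in DMSO and absorbance read at 570 nm. IC50 came from an S curve of inhibition rate against concentration.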

Series [5] relates to small cell lung cancer cell line H69. As to the kind of experiment: MTT proliferation, small cell lung cancer cell line H69. It is filed as cell-based. The conditions noted are these: read-out: IC50 (μM) of compounds in small cell lung cancer cells, H69. An outline of the steps:
as §1

`CC(C)OC(=O)C(C)NP(=O)(COC[C@@H]1CC(O)[C@H](n2cnc3c(NC(=O)c4ccncc4)ncnc32)O1)Oc1ccccc1` (some centres unmarked) [Compound 24, isopropyl((((4-hydroxy-5-(6-(isonicotinamide)-9H-purin-9-yl)tetrahydrofuran-2-yl)methoxy)methyl)(phenoxy)phosphoryl)alanine ester]: the “Maximum tolerance dose (MTD) in zebrafish model” value in series [1] was found to be 5 µM. Moreover, the IC50 – broadly, the concentration at which inhibition is half-maximal – amounted to 24.4 µM in series [2] (Homo sapiens, NCI-H1048, 72 h); 0.13 µM in series [4] (72 h); 25.5 µM in series [5] (72 h). Moreover, the “survival time of the tumor-bearing mice (median survival time)” value in series [3] worked out at 76 days.

`Nc1ncnc2c1ncn2[C@@H]1O[C@H](CO)C[C@H]1O` [Cordycepin, 3′-deoxyadenosine]: the “Maximum tolerance dose (MTD) in zebrafish model” value in series [1] came to 995 µM. Besides, the IC50 in series [2] (Homo sapiens, NCI-H1048, 72 h, MTT, 72 hours, H1048) is greater than 100 µM; in series [2] (MTT, 72 hours, H1048), 172 µM; in series [4] (MTT, 72 hours, AGS), 372 µM; in series [5] (MTT, 72 hours, H69), 63.1 µM. Besides, the “survival time of the tumor-bearing mice (median survival time)” value in series [3] is 52 days.
